Reference: PubChem BioAssay (NCI)
“And” between values parts separate entries of the source, which are not always exact repeats. Equal entries are not always repeated.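 Assay format: 96-well plates, 48-hour exposure. GI50 is the concentration that inhibits growth by half. The concentration for full growth arrest is given as TGI.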

Tested on: SK-MEL-5 melanoma
Experiment: inhibition of tumour cell growth, NCI panel, 48 h

SMILES	GI50 [nM]	TGI
COc1cc2c(c(OC)c1OC)-c1ccc(OC)c(=O)cc1[C@@H](NC(=O)c1ccccc1)CC2	5.69	–
COc1cccc2c1C(=O)c1c(O)c3c(c(O)c1C2=O)C[C@@](O)(C(C)=O)C[C@@H]3OC1OC(C)C(O)C(N)C1Br (stereo not given in full)	16.6	223 nM and 139 nM
CN1C/C=C\CCOc2cccc(c2)-c2ccnc(n2)Nc2cccc(c2)C1	50.2	205 nM
Oc1ccccc1C(Sc1nc2ccccc2s1)Sc1nc2ccccc2s1	–	> 100000 nM
COC1=C(C)C(=O)c2c(c(COC(N)=O)c3n2CC2C3N2C)C1=O (stereo not given)	–	150 nM
COc1ccc(Cn2cc3c(c2-c2ccccc2)CC(C)(C)c2cnoc2-3)cc1	1600	9610 nM
c1cc(CNC23CC4CC(CC(C4)C2)C3)cc(C[N+](Cc2cccc(CNC34CC5CC(CC(C5)C3)C4)c2)(Cc2cccc(CNC34CC5CC(CC(C5)C3)C4)c2)Cc2cccc(CNC34CC5CC(CC(C5)C3)C4)c2)c1 (stereo not given)	6360	26300 nM
CN(C)C(=O)c1cc2cnc(Nc3ccc(-c4csc5c(=S)cc(N6CCOCC6)oc45)cc3)nc2n1C1CCCC1	715	2430 nM
COC1=CC(=O)c2nc(-c3cccc(C)n3)[nH]c2C1=O	15900	36400 nM

Tested on: UO-31 renal
Experiment: inhibition of tumour cell growth, NCI panel, 48 h

SMILES	GI50 [nM]	TGI
COc1cc2c(c(OC)c1OC)-c1ccc(OC)c(=O)cc1[C@@H](NC(=O)c1ccccc1)CC2	> 30000	> 100000 nM
COc1cccc2c1C(=O)c1c(O)c3c(c(O)c1C2=O)C[C@@](O)(C(C)=O)C[C@@H]3OC1OC(C)C(O)C(N)C1Br (stereo not given in full)	134	329 nM and 590 nM
CN1C/C=C\CCOc2cccc(c2)-c2ccnc(n2)Nc2cccc(c2)C1	32.4	460 nM
Oc1ccccc1C(Sc1nc2ccccc2s1)Sc1nc2ccccc2s1	–	> 100000 nM
COC1=C(C)C(=O)c2c(c(COC(N)=O)c3n2CC2C3N2C)C1=O (stereo not given)	–	232 nM
COc1ccc(Cn2cc3c(c2-c2ccccc2)CC(C)(C)c2cnoc2-3)cc1	3080	> 100000 nM
c1cc(CNC23CC4CC(CC(C4)C2)C3)cc(C[N+](Cc2cccc(CNC34CC5CC(CC(C5)C3)C4)c2)(Cc2cccc(CNC34CC5CC(CC(C5)C3)C4)c2)Cc2cccc(CNC34CC5CC(CC(C5)C3)C4)c2)c1 (stereo not given)	3410	8210 nM
CN(C)C(=O)c1cc2cnc(Nc3ccc(-c4csc5c(=S)cc(N6CCOCC6)oc45)cc3)nc2n1C1CCCC1	227	1540 nM
COC1=CC(=O)c2nc(-c3cccc(C)n3)[nH]c2C1=O	26400	> 100000 nM

Tested on: LOX IMVI melanoma
Experiment: inhibition of tumour cell growth, NCI panel, 48 h

SMILES	GI50 [nM]	TGI
COc1cc2c(c(OC)c1OC)-c1ccc(OC)c(=O)cc1[C@@H](NC(=O)c1ccccc1)CC2	10.5	30000 nM and 53400 nM
COc1cccc2c1C(=O)c1c(O)c3c(c(O)c1C2=O)C[C@@](O)(C(C)=O)C[C@@H]3OC1OC(C)C(O)C(N)C1Br (stereo not given in full)	–	153 nM and 164 nM
CN1C/C=C\CCOc2cccc(c2)-c2ccnc(n2)Nc2cccc(c2)C1	34.3	1060 nM
Oc1ccccc1C(Sc1nc2ccccc2s1)Sc1nc2ccccc2s1	–	> 100000 nM
COC1=C(C)C(=O)c2c(c(COC(N)=O)c3n2CC2C3N2C)C1=O (stereo not given)	–	53 nM
COc1ccc(Cn2cc3c(c2-c2ccccc2)CC(C)(C)c2cnoc2-3)cc1	3550	> 100000 nM
c1cc(CNC23CC4CC(CC(C4)C2)C3)cc(C[N+](Cc2cccc(CNC34CC5CC(CC(C5)C3)C4)c2)(Cc2cccc(CNC34CC5CC(CC(C5)C3)C4)c2)Cc2cccc(CNC34CC5CC(CC(C5)C3)C4)c2)c1 (stereo not given)	2110	5300 nM
CN(C)C(=O)c1cc2cnc(Nc3ccc(-c4csc5c(=S)cc(N6CCOCC6)oc45)cc3)nc2n1C1CCCC1	355	2540 nM
COC1=CC(=O)c2nc(-c3cccc(C)n3)[nH]c2C1=O	49600	> 100000 nM

Tested on: PC-3 prostate
Experiment: inhibition of tumour cell growth, NCI panel, 48 h

SMILES	GI50 [nM]	TGI
COc1cc2c(c(OC)c1OC)-c1ccc(OC)c(=O)cc1[C@@H](NC(=O)c1ccccc1)CC2	< 3	30000 nM and > 56500 nM
COc1cccc2c1C(=O)c1c(O)c3c(c(O)c1C2=O)C[C@@](O)(C(C)=O)C[C@@H]3OC1OC(C)C(O)C(N)C1Br (stereo not given in full)	–	1030 nM
CN1C/C=C\CCOc2cccc(c2)-c2ccnc(n2)Nc2cccc(c2)C1	71.3	435 nM
Oc1ccccc1C(Sc1nc2ccccc2s1)Sc1nc2ccccc2s1	–	> 100000 nM
COC1=C(C)C(=O)c2c(c(COC(N)=O)c3n2CC2C3N2C)C1=O (stereo not given)	–	244 nM
COc1ccc(Cn2cc3c(c2-c2ccccc2)CC(C)(C)c2cnoc2-3)cc1	3270	> 100000 nM
c1cc(CNC23CC4CC(CC(C4)C2)C3)cc(C[N+](Cc2cccc(CNC34CC5CC(CC(C5)C3)C4)c2)(Cc2cccc(CNC34CC5CC(CC(C5)C3)C4)c2)Cc2cccc(CNC34CC5CC(CC(C5)C3)C4)c2)c1 (stereo not given)	5860	21600 nM
CN(C)C(=O)c1cc2cnc(Nc3ccc(-c4csc5c(=S)cc(N6CCOCC6)oc45)cc3)nc2n1C1CCCC1	312	> 10800 nM
COC1=CC(=O)c2nc(-c3cccc(C)n3)[nH]c2C1=O	11800	39500 nM

Tested on: CCRF-CEM leukemia
Experiment: inhibition of tumour cell growth, NCI panel, 48 h

SMILES	TGI	GI50 [nM]
COc1cc2c(c(OC)c1OC)-c1ccc(OC)c(=O)cc1[C@@H](NC(=O)c1ccccc1)CC2	> 100000 nM	–
COc1cccc2c1C(=O)c1c(O)c3c(c(O)c1C2=O)C[C@@](O)(C(C)=O)C[C@@H]3OC1OC(C)C(O)C(N)C1Br (stereo not given in full)	70 nM and 108 nM	–
CN1C/C=C\CCOc2cccc(c2)-c2ccnc(n2)Nc2cccc(c2)C1	1040 nM	34.9
Oc1ccccc1C(Sc1nc2ccccc2s1)Sc1nc2ccccc2s1	> 100000 nM	–
COC1=C(C)C(=O)c2c(c(COC(N)=O)c3n2CC2C3N2C)C1=O (stereo not given)	105 nM	–
COc1ccc(Cn2cc3c(c2-c2ccccc2)CC(C)(C)c2cnoc2-3)cc1	> 100000 nM	2470
c1cc(CNC23CC4CC(CC(C4)C2)C3)cc(C[N+](Cc2cccc(CNC34CC5CC(CC(C5)C3)C4)c2)(Cc2cccc(CNC34CC5CC(CC(C5)C3)C4)c2)Cc2cccc(CNC34CC5CC(CC(C5)C3)C4)c2)c1 (stereo not given)	209000 nM	6100
CN(C)C(=O)c1cc2cnc(Nc3ccc(-c4csc5c(=S)cc(N6CCOCC6)oc45)cc3)nc2n1C1CCCC1	> 9840 nM	274
COC1=CC(=O)c2nc(-c3cccc(C)n3)[nH]c2C1=O	> 100000 nM	61800
